Measured values: patent US20250320189A1, “NEW DERIVATIVES FOR TREATING TRPM3 MEDIATED DISORDERS” (Katholieke Universiteit Leuven, priority 2022, published 2025)

Biological target: T1, mouse TRPM3α2 (mTRPM3) ion channel (Mus musculus, UniProt J9SQF3)
T1 construct: expressed in transfected cells; host or cells: flip-in (Flp-In) HEK293
Assay: Monitoring the TRPM3 ion channel driven Ca2+ uptake (Fluo-4 AM assay)
Format: cell-based
Details: mTRPM3alpha2 overexpressing flip-in HEK293 cells, stimulated with Pregnenolone sulfate (PS) 50 μM
Method: In order to monitor the inhibition of the mouse TRPM3α2 (mTRPM3) ion channel by the compounds of the invention, a cellular system making use of an mTRPM3alpha2 or hTRPM3 overexpressing cell line (flip-in HEK293) was used. The TRPM3 channel was stimulated/opened with Pregnenolone sulfate (PS) (50 μM) which results in Ca^2+ influx.
For mTRPM3, the intracellular Ca^2+ was measured with a Calcium responsive dye, Fluor-4 AMV ester (Invitrogen). Cells were cultured until a confluence of 80-90%, washed with Versene (Invitrogen) and detached from the surface by a short incubation with 0.05% Trypsin (Invitrogen). The trypsination process was stopped by the addition of complete cell culture medium (DMEM, glutamax, 10% FCS, NEAA,Pen-Strep). Cells were collected and resuspended in Krebs buffer without Calcium at RT.
Prior the cell seeding (±2000 cells/well into a black, 384 well plate (Greiner)) the diluted compound was added in the assay plate, together with the PS dissolved in Krebs buffer containing Calcium. […] Directly after cell addition the plates were read on an Envision fluorescence reader (PerkinElmer) by an Excitation of 485 nm and emission at 535 nm.
Channel inhibition was calculated compared to a non-PS stimulated control versus a condition stimulated with PS (50 μM) with vehicle. The ability of the compounds of the invention to inhibit this activity was determined as: Percentage inhibition=[1−((RFU determined for sample with test compound present−RFU determined for sample with positive control inhibitor) divided by (RFU determined in the presence of vehicle−RFU determined for sample with positive control inhibitor))]*100.
The activities of the Example compounds tested are depicted in the table below. The activity ranges A, B and C refer to IC50 values in the Fluo-4 AM assay as follows: “A”: IC50<1 μM; “B”: 1 μM≤IC50≤20 μM and “C”: IC50>20 μM

T1 sequence (J9SQF3 1-1709 isoform J9SQF3-12): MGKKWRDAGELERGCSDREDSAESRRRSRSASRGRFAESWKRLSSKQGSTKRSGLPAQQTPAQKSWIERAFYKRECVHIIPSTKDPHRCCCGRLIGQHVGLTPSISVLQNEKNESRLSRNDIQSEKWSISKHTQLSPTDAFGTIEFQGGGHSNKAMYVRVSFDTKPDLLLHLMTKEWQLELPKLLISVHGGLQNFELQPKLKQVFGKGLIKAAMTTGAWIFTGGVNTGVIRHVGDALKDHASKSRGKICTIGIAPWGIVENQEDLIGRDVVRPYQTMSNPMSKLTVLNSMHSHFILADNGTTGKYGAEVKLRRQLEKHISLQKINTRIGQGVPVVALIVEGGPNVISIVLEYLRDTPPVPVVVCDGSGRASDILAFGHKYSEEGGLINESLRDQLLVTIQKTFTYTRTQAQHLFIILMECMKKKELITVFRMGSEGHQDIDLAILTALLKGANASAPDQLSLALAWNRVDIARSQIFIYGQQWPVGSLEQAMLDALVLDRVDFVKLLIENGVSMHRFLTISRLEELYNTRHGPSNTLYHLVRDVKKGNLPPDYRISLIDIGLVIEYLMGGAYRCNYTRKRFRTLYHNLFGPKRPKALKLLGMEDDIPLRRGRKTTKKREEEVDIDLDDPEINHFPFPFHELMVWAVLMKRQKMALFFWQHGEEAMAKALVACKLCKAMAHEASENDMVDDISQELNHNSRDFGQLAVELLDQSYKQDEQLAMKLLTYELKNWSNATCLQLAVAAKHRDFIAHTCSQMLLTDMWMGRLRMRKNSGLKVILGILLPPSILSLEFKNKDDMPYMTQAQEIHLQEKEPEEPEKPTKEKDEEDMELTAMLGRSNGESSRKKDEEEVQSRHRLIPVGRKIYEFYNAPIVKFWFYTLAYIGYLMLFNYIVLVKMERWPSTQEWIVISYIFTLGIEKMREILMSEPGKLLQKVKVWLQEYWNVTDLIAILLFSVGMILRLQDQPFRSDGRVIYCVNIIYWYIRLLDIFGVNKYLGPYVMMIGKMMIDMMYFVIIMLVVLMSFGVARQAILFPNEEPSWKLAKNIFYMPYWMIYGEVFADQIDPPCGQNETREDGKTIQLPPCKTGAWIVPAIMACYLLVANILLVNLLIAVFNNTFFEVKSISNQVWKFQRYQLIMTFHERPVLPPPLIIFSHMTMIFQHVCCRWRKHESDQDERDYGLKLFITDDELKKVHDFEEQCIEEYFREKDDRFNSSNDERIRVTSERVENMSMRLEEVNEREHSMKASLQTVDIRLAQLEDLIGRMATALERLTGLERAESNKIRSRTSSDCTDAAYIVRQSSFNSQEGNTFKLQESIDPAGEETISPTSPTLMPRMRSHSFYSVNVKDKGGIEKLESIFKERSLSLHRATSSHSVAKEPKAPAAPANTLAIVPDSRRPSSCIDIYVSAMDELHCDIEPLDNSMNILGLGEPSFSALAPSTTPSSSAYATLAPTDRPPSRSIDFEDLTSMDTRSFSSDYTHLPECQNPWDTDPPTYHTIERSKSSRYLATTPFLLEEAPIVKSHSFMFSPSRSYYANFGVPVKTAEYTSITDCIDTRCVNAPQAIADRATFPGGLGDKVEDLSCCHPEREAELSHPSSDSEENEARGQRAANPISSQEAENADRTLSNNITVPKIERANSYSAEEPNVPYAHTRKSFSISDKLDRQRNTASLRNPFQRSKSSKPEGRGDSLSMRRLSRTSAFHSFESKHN

Structure (SMILES)	IC50 [µM]
Cc1oc2ccc(OCC3CC(F)(F)C3)cc2c1C(=O)NC(C)(CO)C(N)=O (single isomer, unassigned) [Cpd 054 - En1, 2-({5-[(3,3-difluorocyclobutyl)methoxy]-2-methyl-1-benzofuran-3-yl}formamido)-3-hydroxy-2-methylpropanamide]	1 to 20
Cc1oc2ccc(OCC3CC(F)(F)C3)cc2c1C(=O)NC(C)(CO)C(N)=O (single isomer, unassigned) [Cpd 054 - En2, 2-({5-[(3,3-difluorocyclobutyl)methoxy]-2-methyl-1-benzofuran-3-yl}formamido)-3-hydroxy-2-methylpropanamide]	< 1
Cc1oc2ccc(OCC3CC3)cc2c1C(=O)NC1CCCNC1=O (single isomer, unassigned) [Cpd 055 - En1, 5-(cyclopropylmethoxy)-2-methyl-N-(2-oxopiperidin-3-yl)-1-benzofuran-3-carboxamide]	< 1
Cc1oc2ccc(OCC3CC3)cc2c1C(=O)NC1CCCNC1=O (single isomer, unassigned) [Cpd 055 - En2, 5-(cyclopropylmethoxy)-2-methyl-N-(2-oxopiperidin-3-yl)-1-benzofuran-3-carboxamide]	1 to 20
Cc1oc2ccc(OCC3CC3)cc2c1C(=O)NC(CO)C(N)C(F)(F)F (single isomer, unassigned) [Cpd 056 - En1, N-[(2)-3-amino-4,4,4-trifluoro-1-hydroxybutan-2-yl]-5-(cyclopropylmethoxy)-2-methyl-1-benzofuran-3-carboxamide]	1 to 20
Cc1oc2ccc(OCC3CC3)cc2c1C(=O)NC(CO)C(N)C(F)(F)F (single isomer, unassigned) [Cpd 056 - En2, N-[(2)-3-amino-4,4,4-trifluoro-1-hydroxybutan-2-yl]-5-(cyclopropylmethoxy)-2-methyl-1-benzofuran-3-carboxamide]	< 1
Cc1oc2ccc(OCC3CC3)cc2c1C(=O)NC(CO)C(N)C(F)(F)F (single isomer, unassigned) [Cpd 056 - En3, N-[(2)-3-amino-4,4,4-trifluoro-1-hydroxybutan-2-yl]-5-(cyclopropylmethoxy)-2-methyl-1-benzofuran-3-carboxamide]	< 1
Cc1oc2ccc(OCC3CC3)cc2c1C(=O)NC(CO)C(N)C(F)(F)F (single isomer, unassigned) [Cpd 056 - En4, N-[(2)-3-amino-4,4,4-trifluoro-1-hydroxybutan-2-yl]-5-(cyclopropylmethoxy)-2-methyl-1-benzofuran-3-carboxamide]	1 to 20
Cc1oc2ccc(OCC3CC3(F)F)cc2c1C(=O)NC(CO)CC(F)(F)F (single isomer, unassigned) [Cpd 057 - En1, 5-[(2,2-difluorocyclopropyl)methoxy]-2-methyl-N-(4,4,4-trifluoro-1-hydroxybutan-2-yl)-1-benzofuran-3-carboxamide]	< 1
Cc1oc2ccc(OCC3CC3(F)F)cc2c1C(=O)NC(CO)CC(F)(F)F (single isomer, unassigned) [Cpd 057 - En2, 5-[(2,2-difluorocyclopropyl)methoxy]-2-methyl-N-(4,4,4-trifluoro-1-hydroxybutan-2-yl)-1-benzofuran-3-carboxamide]	< 1
Cc1oc2ccc(OCC3CC3(F)F)cc2c1C(=O)NC(CO)CC(F)(F)F (single isomer, unassigned) [Cpd 057 - En3, 5-[(2,2-difluorocyclopropyl)methoxy]-2-methyl-N-(4,4,4-trifluoro-1-hydroxybutan-2-yl)-1-benzofuran-3-carboxamide]	1 to 20
Cc1oc2ccc(OCC3CC3(F)F)cc2c1C(=O)NC(CO)CC(F)(F)F (single isomer, unassigned) [Cpd 057 - En4, 5-[(2,2-difluorocyclopropyl)methoxy]-2-methyl-N-(4,4,4-trifluoro-1-hydroxybutan-2-yl)-1-benzofuran-3-carboxamide]	1 to 20
Cc1oc2ccc(OC[C@H]3C[C@@H](C)C3)cc2c1C(=O)NC(C)(CO)C(N)=O (single isomer, unassigned) [Cpd 058 - En1, Cis-3-hydroxy-2-methyl-2-({2-methyl-5-[(3-methylcyclobutyl)methoxy]-1-benzofuran-3-yl}formamido)propenamide]	< 1
Cc1oc2ccc(OC[C@H]3C[C@@H](C)C3)cc2c1C(=O)NC(C)(CO)C(N)=O (single isomer, unassigned) [Cpd 058 - En2, Cis-3-hydroxy-2-methyl-2-({2-methyl-5-[(3-methylcyclobutyl)methoxy]-1-benzofuran-3-yl}formamido)propenamide]	1 to 20
Cc1oc2ccc(OC[C@H]3C[C@H](C)C3)cc2c1C(=O)NC(C)(CO)C(N)=O (single isomer, unassigned) [Cpd 059 - En1, Trans-3-hydroxy-2-methyl-2-({2-methyl-5-[(3-methylcyclobutyl)methoxy]-1-benzofuran-3-yl}formamido)propenamide]	< 1
Cc1oc2ccc(OC[C@H]3C[C@H](C)C3)cc2c1C(=O)NC(C)(CO)C(N)=O (single isomer, unassigned) [Cpd 059 - En2, Trans-3-hydroxy-2-methyl-2-({2-methyl-5-[(3-methylcyclobutyl)methoxy]-1-benzofuran-3-yl}formamido)propenamide]	1 to 20
COCC(C)(CO)NC(=O)c1c(C)oc2ccc(OCC3(C(F)(F)F)CC3)cc12 (single isomer, unassigned) [Cpd 060 - En1, N-(1-hydroxy-3-methoxy-2-methylpropan-2-yl)-2-methyl-5-{[1-(trifluoromethyl)cyclopropyl]methoxy}-1-benzofuran-3-carboxamide]	1 to 20
COCC(C)(CO)NC(=O)c1c(C)oc2ccc(OCC3(C(F)(F)F)CC3)cc12 (single isomer, unassigned) [Cpd 060 - En2, N-(1-hydroxy-3-methoxy-2-methylpropan-2-yl)-2-methyl-5-{[1-(trifluoromethyl)cyclopropyl]methoxy}-1-benzofuran-3-carboxamide]	< 1
Cc1oc2ccc(OCC3(C(F)(F)F)CC3)cc2c1C(=O)NC1(C)CCCNC1=O (single isomer, unassigned) [Cpd 061 - En1, 2-methyl-N-(3-methyl-2-oxopiperidin-3-yl)-5-{[1-(trifluoromethyl)cyclopropyl]methoxy}-1-benzofuran-3-carboxamide]	> 20
Cc1oc2ccc(OCC3(C(F)(F)F)CC3)cc2c1C(=O)NC1(C)CCCNC1=O (single isomer, unassigned) [Cpd 061 - En2, 2-methyl-N-(3-methyl-2-oxopiperidin-3-yl)-5-{[1-(trifluoromethyl)cyclopropyl]methoxy}-1-benzofuran-3-carboxamide]	1 to 20
Cc1oc2ccc(OCC3CCCC3)cc2c1C(=O)NC(C)(CO)C(N)=O (single isomer, unassigned) [Cpd 062 - En1, 2-{[5-(cyclopentylmethoxy)-2-methyl-1-benzofuran-3-yl]formamido}-3-hydroxy-2-methylpropanamide]	< 1
Cc1oc2ccc(OCC3CCCC3)cc2c1C(=O)NC(C)(CO)C(N)=O (single isomer, unassigned) [Cpd 062 - En2, 2-{[5-(cyclopentylmethoxy)-2-methyl-1-benzofuran-3-yl]formamido}-3-hydroxy-2-methylpropanamide]	< 1
Cc1oc2ccc(OCC3CC3)cc2c1C(=O)N[C@@H](CO)C(N)=O [Cpd 001, (2S)-2-{[5-(cyclopropylmethoxy)-2-methyl-1-benzofuran-3-yl]formamido}-3-hydroxypropanamide]	< 1
Cc1oc2ccc(OCC3(C(F)F)CC3)cc2c1C(=O)N[C@@H](CO)C(N)=O [Cpd 003, (2S)-2-[(5-{[1-(difluoromethyl)cyclopropyl]methoxy}-2-methyl-1-benzofuran-3-yl)formamido]-3-hydroxypropanamide]	< 1
NC(=O)[C@H](CO)NC(=O)c1c(C2CC2)oc2ccc(OCC3CC3)cc12 [Cpd 004, (2S)-2-{[2-cyclopropyl-5-(cyclopropylmethoxy)-1-benzofuran-3-yl]formamido}-3-hydroxypropanamide]	< 1
Cc1oc2ccc(OCCC3CC3)cc2c1C(=O)N[C@@H](CO)C(N)=O [Cpd 005, (2S)-2-{[5-(2-cyclopropylethoxy)-2-methyl-1-benzofuran-3-yl]formamido}-3-hydroxypropanamide]	< 1
Cc1oc2ccc(OCC3CCC3)cc2c1C(=O)N[C@@H](CO)C(N)=O [Cpd 006, (2S)-2-{[5-(cyclobutylmethoxy)-2-methyl-1-benzofuran-3-yl]formamido}-3-hydroxypropanamide]	< 1
Cc1oc2ccc(OCC3CCC3)cc2c1C(=O)N[C@@H](C)C(N)=O [Cpd 007, (2S)-2-{[5-(cyclobutylmethoxy)-2-methyl-1-benzofuran-3-yl]formamido}propanamide]	< 1
